From patent US20220378727A1 (priority 2021, published 2022)
Values joined by “and” are separate entries in the source; they are usually repeats but may differ in a detail not shown here. Equal values may be shown once. Read-outs that look alike come from different tables or passages of the source.

Key:
[1] = Toxicity study in uninfected mice after intratracheal powder; format: in vivo, BALB/c mice; settings: 1 mg powder intratracheally
Experimental: HPBCD only powder was prepared according to the same protocol as A2-TFN but without the addition of tamibarotene and tert-butyl alcohol. One milligram of A2-TFN powder or HPBCD powder, or 50 μL of phosphate buffer saline (PBS) was intratracheally administered in healthy BALB/c mice under anesthesia.

[2] = Dissolution study of fine particle dose in simulated lung fluid; format: physicochemical
Experimental: The dissolution profile of A2-TFN powders was investigated using a jacketed beaker which contained 100 mL of simulated lung fluid as dissolution medium. The preparation of simulated lung fluid was according to Marques et al. (SLF3 in the article). The temperature was maintained at 37° C. and the medium was stirred at 75 rpm with a magnetic bar. As fine particle dose (FPD, aerodynamic diameter<5 μm) is considered to be the fraction of powder that can deposit in the deep lung region, the FPD of A2-TFN formulation was collected by a Fast Screening Impactor (FSI, Copley Scientific, UK) coupled with Breezhaler® as described before for dissolution study. Approximately 8.5±0.5 mg of A2-TFN powder was dispersed by FSI to separate an FPD (which contained an estimated amount of 0.5 mg of tamibarotene). The powders were placed on a glass fiber filter paper which was then transferred into the jacketed beaker. At pre-determined time intervals, 1 mL of dissolution medium was withdrawn and filtered through 0.45-μm membrane filter. Equal volume of pre-warmed fresh medium was refilled immediately. The unformulated tamibarotene powder was included as control for comparison. The concentration of tamibarotene was quantified by HPLC as described above. The dissolution study was carried out in triplicate.

[3] = test system: SARS-CoV-2; test: Plaque reduction assay for antiviral EC50, Vero E6 cells; format: cell-based; settings: Severe acute respiratory syndrome coronavirus 2, Vero C1008
Experimental: Plaque reduction assay was performed to plot the 50% antiviral effective dose (EC50). Vero E6 cells were used for SARS-CoV-2 and MDCK cells for influenza A virus. Briefly, cells were seeded at 4×10^5 cells/well in 12-well tissue culture plates on the day before carrying out the assay. After 24 h of incubation, 50 p.f.u. of SARS-CoV-2 or H1N1 virus were added to the cell monolayer with or without the addition of drug compounds and the plates were further incubated for 1 h at 37° C. in 5% CO2 before removal of unbound viral particles by aspiration of the media and washing once with DMEM. Monolayers were then overlaid with media containing 1% low melting agarose (Cambrex Corporation, New Jersey, USA) in DMEM and appropriate concentrations of individual compound, inverted and incubated as above for another 72 h. The wells were then fixed with 10% formaldehyde (BDH, Merck, Darmstadt, Germany) overnight. After removal of the agarose plugs, the monolayers were stained with 0.7% crystal violet (BDH, Merck) and the plaques counted. The percentage of plaque inhibition relative to the control (i.e., without the addition of compound) wells were determined for each drug compound concentration. The EC50 was calculated using Sigma plot (SPSS) in an Excel add-in ED50V10. The plaque reduction assay experiments were performed in triplicate and repeated twice for confirmation.

[4] = test system: H1N1 virus; test: Plaque reduction assay for antiviral EC50, MDCK cells; format: cell-based; settings: Influenza A virus
[5] = test system: influenza A H1N1 virus; test: In vivo prophylactic protection against H1N1 virus; set-up: species or system BALB/c mice; settings: for Lung histopathology (H&E) / Viral PA protein expression in lung (immunofluorescence): 3 d.p.i., data not shown; for Viral RNA load in lung tissues compared with PBS: day 3 post-challenge, 5 mg/kg i.t., one-way ANOVA; for Survival rate compared with PBS group: log-rank test, p<0.01
Experimental: BALB/c mice were used to investigate the in vivo activity of A2-TFN formulation against influenza A H1N1 virus. The mice were evaluated in divided into four groups (nine mice per group). Prior to virus inoculation, i.t. administration was performed under anesthesia in each group: (i) 20 μL of zanamivir solution (5 mg/mL); (ii) 50 μL of unformulated tamibarotene suspension (2 mg/mL); and (iii) 1 mg of A2-TFN powder. The dose of zanamivir or tamibarotene was 5 mg/kg per mouse. In the fourth group of mice, 50 μL of PBS was i.t. administered as negative control. At 2 h post administration, all the mice were i.n. inoculated with 20 μL of virus suspension containing 100 p.f.u. of HIN virus under anesthesia. Four mice in each group were euthanatized randomly on 3 d.p.i. and the lung tissues were harvested for viral load assay by qRT-PCR method. Animal survival, clinical symptoms and body weight were monitored for 14 days or until the humane endpoint (body weight loss more than 20%) was reached. The lung tissue histopathology of infected mice was examined by hematoxylin and eosin (H&E) and immunofluorescence staining. This experiment was conducted in two independent experiments (n=9 in each group).

[6] = test system: H1N1 virus; test: In vivo therapeutic effect against H1N1 virus, intranasal treatment; set-up: species or system BALB/c mice; settings: for Viral RNA load in lung compared with PBS group: 3 d.p.i., zanamivir 2 mg/kg i.n., one-way ANOVA; for Viral RNA load in lung compared with PBS group / Survival rate: tamibarotene 0.1 mg/kg; for Survival rate: 14 d.p.i., five i.n. doses from 4 h post 10 p.f.u. H1N1, zanamivir 2 mg/kg, n=7; for Survival rate compared with PBS group: Log-rank test, p<0.01
Experimental: To evaluate the therapeutic effect of tamibarotene formulation against H1N1 virus, BALB/c mice were i.n. inoculated with 20 μL of virus suspension containing 10 p.f.u. of H1N1 virus under anaesthesia. At 4 h post virus challenge, the first therapeutic dose was initiated and the mice were divided into four groups (11 mice per group) to receive 20 μL of each treatment via i.n. administration: (i) zanamivir solution (2 mg/mL); (ii) unformulated tamibarotene suspension (100 μg/mL); (iii) reconstituted A2-TFN solution (100 μg/mL); and (iv) PBS (as negative control). The dose of tamibarotene was 0.1 mg/kg, and the dose of zanamivir was 2 mg/kg. On day 1 and day 2 post-infection, the therapeutic doses were administered twice a day. On 3 d.p.i., four mice in each group were euthanatized randomly and the lung tissues were harvested for viral load assay by qRT-PCR method. Animal survival, clinical symptoms and body weight were monitored for 14 days or until the humane endpoint (body weight loss more than 20%) was reached. This experiment was conducted in two independent experiments (n=11 in each group).

[7] = plasma, i.p. drug suspension, 5 mg/kg tamibarotene, n=5
[8] = test system: MERS-CoV; settings: from Yuan, et al., Nature Communications 2019, 10, 120; cited from earlier work
[9] = in vivo; settings: BALB/c, mouse, ip, 5 mg/kg; for AUC(0-t): AUC0-8 h; for AUC(0-inf): AUC0-∞—D; for MRT last: MRT0-8 h
[10] = lung, i.p. drug suspension, 5 mg/kg tamibarotene
[11] = plasma, i.p. drug suspension, 5 mg/kg tamibarotene

## 2-hydroxypropyl-β-cyclodextrin [HPβCD]
[1]
  Body weight of uninfected mice: recovered more rapidly than A2-TFN group
[1]; data not shown
  Toxicity in lung histopathology of uninfected mice: No marked toxicity

## CC1(C)CCC(C)(C)c2cc(NC(=O)c3ccc(C(=O)O)cc3)ccc21 [tamibarotene]
[2]; Student's t-test, p<0.01
  Cumulative dissolved drug after 24 h compared with A2-TFN powder: significantly lower
[2]; within the first hour, 37° C.
  Drug dissolved: approximately 20%
[3]
  EC50: 5800 ± 1200 nM
[4]
  EC50: 1680 ± 980 nM
[5]
  Lung histopathology (H&E): Severe alveolar damage and interstitial inflammatory infiltration
  Viral PA protein expression in lung (immunofluorescence): diminished but remained noticeable in bronchiolar epithelial cells
  Viral RNA load in lung tissues compared with PBS: significantly lower
  Survival rate compared with PBS group: significantly higher
[5]; single i.t. dose 5 mg/kg 2 h before 100 p.f.u. H1N1
  Time by which all mice reached humane endpoint: < 9 d.p.i.
[6]
  Viral RNA load in lung compared with PBS group: significantly lower
  Survival rate: 71%
  Survival rate compared with PBS group: significantly higher
[7]
  Cmax: 14.2 ± 0.9 µM
[8]
  EC50: 320 ± 26 nM
[9]
  Tmax: 30 min
[9]; [10]
  AUC(0-t): 2400 ± 300 ng·h/mL
  AUC(0-inf): 500 ± 60 ng·h/mL
  MRT last: 36 ± 12 min
[9]; [11]
  AUC(0-t): 6000 ± 500 ng·h/mL
  AUC(0-inf): 1500 ± 200 ng·h/mL
  MRT last: 90 ± 12 min
[9]; Cmax, lung, i.p. drug suspension, 5 mg/kg tamibarotene, n=5
  Cmax: 7.4 µM and 2600 ng/mL
[9]; T1/2, lung, i.p. drug suspension, 5 mg/kg tamibarotene
  half-life: 30 ± 4.8 min
[9]; T1/2, plasma, i.p. drug suspension, 5 mg/kg tamibarotene
  half-life: 108 ± 24 min

## CC(=O)N[C@H]1[C@H]([C@H](O)[C@H](O)CO)OC(C(=O)O)=C[C@@H]1N=C(N)N [zanamivir]
[5]
  Lung histopathology (H&E): alleviated
  Viral PA protein expression in lung (immunofluorescence): diminished but remained noticeable in bronchiolar epithelial cells
  Viral RNA load in lung tissues compared with PBS: no significant difference
  Survival rate compared with PBS group: significantly higher
[5]; 14 d.p.i., single i.t. dose 5 mg/kg 2 h before 100 p.f.u. H1N1, n=5
  Survival rate: 60%
[6]
  Viral RNA load in lung compared with PBS group: not been significantly different
  Survival rate: 86%
  Survival rate compared with PBS group: significantly higher
